Measurements from US10011571B2, “Preparation method for aromatic heterocyclic compound used as selective JAK3 and/or JAK1 kinase inhibitor and application of aromatic heterocyclic compound” (SHENZHEN CHIPSCREEN BIOSCIENCES, LTD., priority 2014, dated 2018).

Key:
CTLL-2 cells = assay: Cell growth activity assay (MTS), CTLL-2 cell model; assay type: cell-based, mouse; conditions: 24 h; for activity at 0.3 µM: Mus musculus, CTLL-2, 300 nM, read-out: CTLL-2 % growth rate @300 nM
Text: (§1) MTS assay is a routine method for cell toxicity detection. The basic principle is based on the capacity of dehydrogenase in the mitochondria of living cells to reduce a novel yellow […] MTS to formazan, so that the amount of living cells is proportional to the amount of formazan product by detecting the absorbance at 490 nm (OD), thereby speculating the amount of living cells according to the OD value, and understanding the capacity of the test compound to inhibit the growth of cells or to kill the cells.
In this experiment, mouse T-cell line CTLL-2 was used. The proliferation and growth of this cell line strongly depend on IL-2, and it is commonly used to evaluate the active titer of exogenous IL-2. By inhibiting the activity of kinase JAK1/3, the proliferation of CTLL-2 can be inhibited under in vitro culture. The activation and proliferation of T-cell is also important pathological characteristics for various immunological diseases. Thus, this model is also pathologically related.
By comparing the change of absorbance generated by the cells treated by the test compounds using MTS assay, the growth inhibitory activity of the test compounds on the model cells can be realized, and thereby potential inhibitory activity of the compounds on JAK1/3 pathway can be evaluated.
(§2) MTS is performed according to routine procedure in a 96-well plate.
(§3) The model cells are inoculated into each well of the 96-well plate at an appropriate concentration (about 20,000 cells/well). After 24 h, the test compounds are added at different concentration gradients (the highest concentration of 10 μM). A solvent control (DMSO) and a negative control are also performed at the same time. Each experiment is repeated for 3 times. The cells are detected after cultured for another 24 h.
CTLL-2 is a suspended cell. After incubation, 20 μL pre-formulated mixture of MTS and PMS (in a ratio of 20:1) is directly added to each well. After incubation at 37° C. for 2 h, it is then detected by a microplate reader (490 nm).
The effect of the test compound on cell growth is calculated by comparing the change of OD values between the test well and the solvent control well, after subtracting the background of the negative control. For the test compounds at different concentration gradients, the inhibitory rates on the growth of model cells and their half-growth inhibitory concentrations (GI50) are each calculated.
Based on the above method, cytological evaluation is performed to the compounds described herein (for the detection of CTLL-2 cell, the concentration of the test compound is 300 nM; for the detection of HeLa and HUVEC cell, the concentration of the test compound is […]).

HeLa cells = assay: Cell growth activity assay (MTS), HeLa cell model; assay type: cell-based, human; design: activity: dose or concentration left out as unconfirmed; conditions: 72 h; for activity: Homo sapiens, HeLa, read-out: HeLa % growth rate
Text: as §1
HeLa cell is a human cervical cancer cell line, and belongs to epithelial tumor cell line; HUVEC is a human umbilical vein endothelial cell, and belongs to primary endothelial cell; both types of cells express all subtypes except for JAK3.
The change of JAK kinase activity has no significant influence on other cell types except for the immune cells, and both cell models mentioned above are mainly used to evaluate whether there are any other kinase targets besides JAK kinases or there are nonselective cell toxicities.
In this experiment, a cultured cell model is incubated with the test compounds at different concentrations for a specific duration. The effect of the treatment by the test compound on the growth of cells is detected using MTS assay.
as §2
as §3, with “(about 5000” for “(about 20,000”, “highest final” for “highest”, “concentration is 40” for “concentration of 10”, “another 72” for “another 24”
After all culture medium is aspirated out of the well, 100 μL fresh medium and 20 μL pre-formulated mixture of MTS and PMS (in a ratio of 20:1) are added to each well. After incubation at 37° C. for 2 h, it is then detected by a microplate reader (490 nm).
The cell growth inhibitory rate and GI50 of the test compound are calculated as above.
Based on the above method, cytological evaluation is performed to the compounds described herein (for the detection of CTLL-2 cell, the concentration of the test compound is 300 nM; […]).

JAK1 = JAK1 (Homo sapiens (Human), UniProt P23458); assay: Z'-LYTE enzymatic activity detection, JAK1; assay type: biochemical; conditions: test compound 300 nM; for inhibition at 0.3 µM: read-out: JAK1 % inhibitory rate @300 nM
Chain of JAK1 (P23458 whole entry): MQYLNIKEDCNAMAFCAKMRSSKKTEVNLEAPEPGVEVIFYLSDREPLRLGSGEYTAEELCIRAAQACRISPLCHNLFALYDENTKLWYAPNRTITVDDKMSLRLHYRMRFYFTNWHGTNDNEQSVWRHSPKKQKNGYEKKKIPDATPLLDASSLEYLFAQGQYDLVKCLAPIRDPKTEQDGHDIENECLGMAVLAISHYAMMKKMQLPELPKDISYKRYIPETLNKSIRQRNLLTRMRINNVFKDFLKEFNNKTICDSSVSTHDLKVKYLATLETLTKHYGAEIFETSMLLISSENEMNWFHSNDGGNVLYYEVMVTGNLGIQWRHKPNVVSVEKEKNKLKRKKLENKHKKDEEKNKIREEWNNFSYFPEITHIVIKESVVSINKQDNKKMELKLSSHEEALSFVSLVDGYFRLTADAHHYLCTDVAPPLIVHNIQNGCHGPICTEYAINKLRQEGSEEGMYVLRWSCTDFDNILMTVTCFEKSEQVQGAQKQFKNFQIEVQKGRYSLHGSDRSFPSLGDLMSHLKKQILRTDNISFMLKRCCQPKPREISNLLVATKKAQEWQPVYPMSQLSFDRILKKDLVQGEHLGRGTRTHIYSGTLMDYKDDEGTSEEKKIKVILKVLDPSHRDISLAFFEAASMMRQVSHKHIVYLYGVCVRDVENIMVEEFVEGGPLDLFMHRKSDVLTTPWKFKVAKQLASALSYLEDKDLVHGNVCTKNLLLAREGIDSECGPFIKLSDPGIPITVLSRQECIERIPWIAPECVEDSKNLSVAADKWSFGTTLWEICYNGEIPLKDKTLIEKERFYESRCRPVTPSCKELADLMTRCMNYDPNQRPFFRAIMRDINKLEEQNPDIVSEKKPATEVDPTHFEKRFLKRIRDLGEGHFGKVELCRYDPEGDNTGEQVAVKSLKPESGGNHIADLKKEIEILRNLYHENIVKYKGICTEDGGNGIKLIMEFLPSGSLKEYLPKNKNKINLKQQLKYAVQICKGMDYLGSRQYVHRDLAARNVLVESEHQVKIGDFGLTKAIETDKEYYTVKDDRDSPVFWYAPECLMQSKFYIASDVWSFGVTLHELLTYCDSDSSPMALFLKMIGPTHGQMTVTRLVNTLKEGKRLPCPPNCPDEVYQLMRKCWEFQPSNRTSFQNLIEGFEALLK
Method: (§4) The basic principle of in vitro enzymatic activity assay is based on the difference between the intensities of fluorescence signals generated at different wavelengths (445 nm and 520 nm) from the phosphorylated substrate and non-phosphorylated substrate, in which the specific fluorescence-labeled substrate is phosphorylated by the kinase. When different test compounds are added, the inhibition of kinase activity is represented as the different degrees of substrate phosphorylation, and thus as the different intensities of fluorescence signal, based on which the inhibitory activity of the compound on the kinase can be calculated. Basic detection principle is illustrated in FIG. 1.
(§5) In an enzymatic inhibitory activity detection, GST-labeled human recombinant JAK kinases, including JAK1/PV4774, JAK2/PV4210, JAK3/PV3855, TYK2/PV4790 and their corresponding specific substrates, including Tyr6 (Z′-LYTE® Kinase Assay Kit-Tyrosine 6 Peptide, JAK1/PV4122), Tyr4 (Z′-LYTE® Kinase Assay Kit-Tyrosine 4 Peptide, JAK2/PV3193), Tyr4 (Z′-LYTE® Kinase Assay Kit-Tyrosine 4 Peptide, JAK3/PV3193), Tyr3 (Z′-LYTE® Kinase Assay Kit-[…], TYK2/PV3192) are used. In all tests, development reagent A (PV3297) was used as the test agent. All materials mentioned above were purchased from Invitrogen.
(§6) (1) Preparation: kinase reaction buffer (working solution) is prepared according to the instruction; a concentration gradient of the test compound is prepared by dilution using the kinase reaction buffer (the highest compound concentration is 10 μM for JAK1, JAK2, and TYK2 detection, and 1 μM for JAK3 detection, respectively).
(§7) (2) 10 μl of reaction system, comprising 2.5 μL test compound, 5 μL kinase reaction buffer and 2.5 μL ATP solution (provided by the kit), is mixed and reaction is performed at room temperature for 1 h.
(§8) (3) Controls, including a solvent control without the test compound, a negative control without ATP and a positive control with the phosphorylated substrate, are tested together with the detection. All tests are carried out in triplicate.
(§9) (4) After the enzymatic reaction, 5 μL pre-formulated development buffer is added, and reaction is performed at room temperature for 1 h. Subsequently, the reaction is terminated by adding 5 μL stop buffer.
(§10) (5) The fluorescence signal in each well is detected by an Ascent Fluoroskan FL reader (Thermo Labsystems) at an excitation wavelength of 400 nm, and emission wavelengths of 445 nm and 520 nm. The proportion of substrate phosphorylation is obtained by reference to the fluorescence signal intensity C445/F520.
(§11) (6) The enzymatic inhibitory rate of the test compound can be calculated based on the following equation: Inhibitory rate (%)=1−the proportion of substrate phosphorylation in the detection well/the proportion of substrate phosphorylation in the solvent control well. The half-inhibitory concentration (IC50) can be calculated using an IC50 calculator based on the inhibitory rates of phosphorylation for the test compounds at different concentration gradients.
(§12) Based on the above method, the compounds described herein are enzymatically evaluated in vitro for JAKs (the concentration of the test compound is 30 nM for JAK3 and JAK2 test, and 300 nM for JAK1 test) using Xeljanz (tofacitinib citrate) as the positive control.

JAK3 = JAK3 (Homo sapiens (Human), UniProt P52333); assay: Z'-LYTE enzymatic activity detection, JAK3; assay type: biochemical; conditions: test compound 30 nM; for inhibition at 0.03 µM: read-out: JAK3 % inhibitory rate @30 nM
Chain of JAK3 (P52333 whole entry): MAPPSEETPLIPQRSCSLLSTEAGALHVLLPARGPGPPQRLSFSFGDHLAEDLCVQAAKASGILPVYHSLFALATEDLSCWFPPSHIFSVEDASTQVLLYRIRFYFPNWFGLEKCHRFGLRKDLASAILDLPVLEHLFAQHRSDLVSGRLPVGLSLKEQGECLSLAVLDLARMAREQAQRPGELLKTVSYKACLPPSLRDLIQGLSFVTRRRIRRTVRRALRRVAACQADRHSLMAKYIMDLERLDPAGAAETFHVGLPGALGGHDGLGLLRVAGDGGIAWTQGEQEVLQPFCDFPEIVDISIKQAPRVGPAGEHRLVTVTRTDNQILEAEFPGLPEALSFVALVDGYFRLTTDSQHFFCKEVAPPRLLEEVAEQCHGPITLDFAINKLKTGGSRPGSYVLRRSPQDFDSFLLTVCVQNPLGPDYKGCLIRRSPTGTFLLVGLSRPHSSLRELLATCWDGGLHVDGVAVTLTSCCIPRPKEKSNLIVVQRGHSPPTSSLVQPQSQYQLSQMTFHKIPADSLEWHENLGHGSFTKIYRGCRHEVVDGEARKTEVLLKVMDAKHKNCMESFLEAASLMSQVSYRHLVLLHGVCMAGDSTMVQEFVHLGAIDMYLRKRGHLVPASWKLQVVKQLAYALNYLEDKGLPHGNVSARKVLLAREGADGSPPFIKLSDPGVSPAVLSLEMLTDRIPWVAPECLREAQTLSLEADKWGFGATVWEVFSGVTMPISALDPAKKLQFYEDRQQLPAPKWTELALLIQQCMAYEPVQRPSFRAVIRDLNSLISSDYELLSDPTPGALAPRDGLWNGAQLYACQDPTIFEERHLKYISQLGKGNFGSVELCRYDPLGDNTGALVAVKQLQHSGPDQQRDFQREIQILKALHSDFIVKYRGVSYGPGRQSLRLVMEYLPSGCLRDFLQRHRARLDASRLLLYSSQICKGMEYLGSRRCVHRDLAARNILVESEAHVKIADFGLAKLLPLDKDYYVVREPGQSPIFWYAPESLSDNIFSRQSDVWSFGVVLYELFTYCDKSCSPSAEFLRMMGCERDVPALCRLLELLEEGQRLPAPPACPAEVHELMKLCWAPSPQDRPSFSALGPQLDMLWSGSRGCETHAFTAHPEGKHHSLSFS
Method: as §4, §5, §6, §7, §8, §9, §10, §11, §12

JAK2 = JAK2 (Homo sapiens (Human), UniProt O60674); assay: Z'-LYTE enzymatic activity detection, JAK2; assay type: biochemical; conditions: test compound 30 nM; for inhibition at 0.03 µM: read-out: JAK2 % inhibitory rate @30 nM
Chain of JAK2 (O60674 whole entry): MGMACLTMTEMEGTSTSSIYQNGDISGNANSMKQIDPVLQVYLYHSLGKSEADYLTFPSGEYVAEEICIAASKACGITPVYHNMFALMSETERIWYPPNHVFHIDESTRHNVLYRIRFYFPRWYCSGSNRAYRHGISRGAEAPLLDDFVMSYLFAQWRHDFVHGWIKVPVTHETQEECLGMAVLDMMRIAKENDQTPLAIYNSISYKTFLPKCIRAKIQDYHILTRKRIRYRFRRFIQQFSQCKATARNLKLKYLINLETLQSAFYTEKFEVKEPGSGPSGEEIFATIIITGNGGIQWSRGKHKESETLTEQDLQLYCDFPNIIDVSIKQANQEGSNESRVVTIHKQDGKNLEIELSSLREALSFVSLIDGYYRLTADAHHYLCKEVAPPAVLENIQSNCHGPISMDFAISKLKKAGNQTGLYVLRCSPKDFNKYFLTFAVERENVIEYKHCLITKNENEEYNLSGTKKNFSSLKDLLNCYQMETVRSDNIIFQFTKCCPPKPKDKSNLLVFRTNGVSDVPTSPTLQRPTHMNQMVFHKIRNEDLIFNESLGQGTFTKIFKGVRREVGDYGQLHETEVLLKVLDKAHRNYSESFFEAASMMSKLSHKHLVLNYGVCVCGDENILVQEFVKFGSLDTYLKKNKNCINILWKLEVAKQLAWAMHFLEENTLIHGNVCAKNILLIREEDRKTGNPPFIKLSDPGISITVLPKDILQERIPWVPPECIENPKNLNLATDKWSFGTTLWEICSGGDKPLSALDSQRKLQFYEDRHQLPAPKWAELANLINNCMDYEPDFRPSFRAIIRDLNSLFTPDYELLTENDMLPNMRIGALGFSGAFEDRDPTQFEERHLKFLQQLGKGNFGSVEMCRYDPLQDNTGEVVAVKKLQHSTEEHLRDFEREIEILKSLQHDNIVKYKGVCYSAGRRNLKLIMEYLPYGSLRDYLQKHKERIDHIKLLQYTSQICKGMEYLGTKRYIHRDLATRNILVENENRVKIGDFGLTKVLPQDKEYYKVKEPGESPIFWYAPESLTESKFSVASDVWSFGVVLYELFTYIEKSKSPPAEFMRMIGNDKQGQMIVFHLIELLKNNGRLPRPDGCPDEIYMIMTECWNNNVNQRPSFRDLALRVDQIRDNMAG
Method: as §4, §5, §6, §7, §8, §9, §10, §11, §12

Compound | activity at 0.3 µM (CTLL-2 cells) [%] | activity (HeLa cells) [%] | JAK1 RV (ratio between the inhibitory rate of the test compound and that of Xeljanz) (JAK1) | inhibition at 0.3 µM (JAK1) [%] | JAK3 RV (ratio between the inhibitory rate of the test compound and that of Xeljanz) (JAK3) | inhibition at 0.03 µM (JAK3) [%] | inhibition at 0.03 µM (JAK2) [%] | JAK2 RV (ratio between the inhibitory rate of the test compound and that of Xeljanz) (JAK2) | CTLL-2 % growth rate @300 nM (CTLL-2 cells; 300 nM) [%] | HeLa % growth rate @10 μM (HeLa cells) [%] | JAK1 % inhibitory rate @300 nM (JAK1) [%] | JAK3 % inhibitory rate @30 nM (JAK3) [%] | JAK2 % inhibitory rate @30 nM (JAK2) [%]
C=CC(=O)N(C)c1cc(Nc2ncc(Cl)c(NCCCNC(=O)c3ccc(C(F)F)cc3)n2)ccc1F [Example 115, N-(3-(5-chloro-2-(4-fluoro-3-(N-methylacrylamido)phenylamino)pyrimidinyl-4-amino)propyl)-4-difluoromethylbenzamide] | 3 | 71 | 0.49 | 42 | 0.98 | 81 | 0 |  |  |  |  |  | 
C=CC(=O)N(C)c1cc(Nc2ncc(C)c(NCCCNC(=O)c3ccc(C#N)cc3)n2)ccc1F [Example 58, 4-cyano-N-(3-(2-(4-fluoro-3-(N-methylacrylamido)phenylamino)-5-methylpyrimidinyl-4-amino)propyl)benzamide] | 54 | 88 | 0.01 | 1 | 0.79 | 107 | 0 |  |  |  |  |  | 
C=CC(=O)N(C)c1cc(Nc2ncc(Cl)c(NCCCNC(=O)c3ccc(C)cc3)n2)ccc1F [Example 83, N-(3-(5-chloro-2-(4-fluoro-3-(N-methylacrylamido)phenylamino)pyrimidinyl-4-amino)propyl)-4-methylbenzamide] | 4 | 70 | 0.42 | 36 | 0.92 | 76 | 2 | 0.04 |  |  |  |  | 
C=CC(=O)N(C)c1cc(Nc2ncc(Cl)c(NCCCNC(=O)c3cccc(C(F)(F)F)c3)n2)ccc1F [Example 91, N-(3-(5-chloro-2-(4-fluoro-3-(N-methylacrylamido)phenylamino)pyrimidinyl-4-amino)propyl)-3-trifluoromethylbenzamide] | 2 | 40 | 0.24 | 20 | 0.99 | 82 | 0 |  |  |  |  |  | 
C=CC(=O)N(C)c1cc(Nc2ncc(Cl)c(NCCCNC(=O)c3ccc(CC)cc3)n2)ccc1F [Example 79, N-(3-(5-chloro-2-(4-fluoro-3-(N-methylacrylamido)phenylamino)pyrimidinyl-4-amino)propyl)-4-ethylbenzamide] | 3 | 78 | 0.22 | 19 | 0.96 | 80 | 0 |  |  |  |  |  | 
C=CC(=O)N(C)c1cc(Nc2ncc(Cl)c(NCCCNC(=O)c3ccc(OC)cc3)n2)ccc1F [Example 40, N-(3-(5-chloro-2-(4-fluoro-3-(N-methylacrylamido)phenylamino)pyrimidinyl-4-amino)propyl)-4-methoxylbenzamide] | 39 | 82 | 0.02 | 4 | 0.46 | 89 | 0 |  |  |  |  |  | 
C=CC(=O)N(C)c1cc(Nc2ncc(Cl)c(NCCCNS(=O)(=O)c3ccc(C#N)cc3)n2)ccc1F [Example 68, 4-cyano-N-(3-(5-chloro-2-(4-fluoro-3-(N-methylacrylamido)phenylamino)pyrimidinyl-4-amino)propyl)benzenesulfonamide] | 69 | 110 | 0.15 | 15 | 0.76 | 103 | 0 |  |  |  |  |  | 
C=CC(=O)N(C)c1cc(Nc2ncc(Cl)c(NCCCCCCNC(=O)c3ccc(C#N)cc3)n2)ccc1F [Example 123, N-(6-(5-chloro-2-(4-fluoro-3-(N-methylacrylamido)phenylamino)pyrimidinyl-4-amino)hexyl)-4-cyanobenzamide] |  |  |  |  | 0.95 |  |  |  | 5 | 5 | 0 | 79 | 0
